Data on two molecules can be found in patent US5135932A, “2-hydroxypropylamino-alkyl-benzimidazoly-5-yl derivatives and their use in the treatment of heart disease” (Dr. Karl Thomae GmbH, priority 1989, dated 1992).

Structures are written as SMILES.

The target in test [1] is T1, β1 adreno receptor (rat hearts) (Rattus norvegicus, UniProt P18090).
T1 construct: receptor preparations from rat hearts (β1); from tissue; host or cells: rat heart membrane preparation
The test is described as follows: Affinity for β-adreno receptors: inhibition of 3H-CGP 12177 binding, receptor preparations from rat hearts (β1). The settings on record: 200 pM 3H-CGP 12177. On the procedure:
(§1) 1. Affinity for β-adreno recectors
(§2) The inhibitory effect on the binding of ^3 H-CGP 12177 was tested on receptor preparations from rat hearts (β1) and rat lungs (β2). The binding assay was carried out with some modifications according to the method of Dammgen et al. (Drug. Res. 35: 383-390 (1985)). The incubation mixture contained aliquots of the membrane preparation in Tris buffer, increasing concentrations of the potential antagonist as well as 200 pM ^3 H-CGP 12177. The bound and free radioligands were separated after the incubation period by rapid filtration through glass fibre filters. The filter-bound radioactivity was determined in a β counter with a counting yield of about 52%. The non-specific binding was determined in the presence of 10^-5 M propranolol.

Test [2] has as its target T2, β2 adreno receptor (rat lungs) (Rattus norvegicus, UniProt P10608).
T2 construct: rat lungs (β2); from tissue; host or cells: rat lung membrane preparation
As to the kind of experiment: Affinity for β-adreno receptors: inhibition of 3H-CGP 12177 binding, receptor preparations from rat lungs (β2). The settings on record: 200 pM 3H-CGP 12177. As for the experimental part: as §1, §2

Test [3] relates to Guinea-pigs (Dunkin-Hartley-Pirbright, male). As to the kind of experiment: Cardiotonic effect: LV-dP/dtmax and heart rate in anaesthetised guinea-pigs. It counts as in vivo, guinea-pig. The settings on record: after a dose of 3 mg/kg i.v., averages from 2 to 3 tests; for change in vivo at 3 mg/kg: Cavia porcellus, iv, read-out: Effects on LV-dP/dtmax % increase. On the procedure:
(§3) Cardiotonic effect with antiadrenergic activity
(§4) Guinea-pigs (Dunkin-Hartley-Pirbright, male, 450-600 g) were anaesthetised with hexobarbital-sodium (150 mg/kg i.p.). After the animals had become unconscious, a tracheal cannula was inserted and the animals were pitched (van Meel, J. Pharmacol. Methods 31 (1): 1-11 (1985)). The animals were then immediately artificially respirated using a breathing pump. The left ventricular pressure (LVP) was measured with a Millar PR-249 catheter-tip manometer inserted into the left ventricle through the left carotid artery. This pressure signal was differentiated electronically (LV-dP/dtmax) and used as a parameter for inotropia. The arterial blood pressure was recorded by a cannula in the right carotid artery using a Bell & Howell pressure recorder. The heart rate was also measured. The substances were administered through a cannula in the jugular vein.
(§5) The test substances were administered to three animals cumulatively in four doses (0.1 to 3 mg/kg) and the effects on blood pressure, heart rate and LV-dP/dtmax were measured. Three minutes after the last dose of the test substance, isoprenalin was administered intravenously in increasing doses. In this way, a cumulative dose-activity correlation was obtained for isoprenalin in the presence of the test substance. The parameters measured were the increase in heart rate and the LV-dP/dtmax. These dose-activity curves were compared with standard curves for isoprenalin without the test substances. The shift to the right of the dose-activity curves for isoprenalin brought about by the test substances were determined graphically and corresponding pA2 values for the test substances were calculated. (see Tenakin in "Pharmacologic Analysis of Drug Receptor Interaction", Rawen Press 1987, pages 211-212).
(§6) The Table which follows contains the averages from 2 to 3 tests: […]

A short description of test [4]: Antiadrenergic activity: shift of isoprenalin dose-activity curves in guinea-pigs (pA2). The test is classed as in vivo, guinea-pig. The settings on record: averages from 2 to 3 tests; for pA2 heart rate: against heart rate-increasing activity of isoprenalin; for pA2 inotropia: against inotropic activity of isoprenalin (LV-dP/dtmax). As for the experimental part: as §3, §4, §5, §6

T2 sequence (P10608 whole entry): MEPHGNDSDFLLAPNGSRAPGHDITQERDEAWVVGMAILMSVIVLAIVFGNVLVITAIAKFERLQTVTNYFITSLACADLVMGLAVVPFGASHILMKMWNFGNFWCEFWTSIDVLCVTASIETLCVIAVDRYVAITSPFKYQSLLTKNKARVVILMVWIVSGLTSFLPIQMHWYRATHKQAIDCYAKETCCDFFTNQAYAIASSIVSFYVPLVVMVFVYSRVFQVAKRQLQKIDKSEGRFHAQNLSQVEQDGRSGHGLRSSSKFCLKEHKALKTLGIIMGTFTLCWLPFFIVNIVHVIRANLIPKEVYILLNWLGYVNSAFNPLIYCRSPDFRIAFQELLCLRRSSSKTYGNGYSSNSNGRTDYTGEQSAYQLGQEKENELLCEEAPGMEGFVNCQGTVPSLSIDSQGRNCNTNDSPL
T1 sequence (P18090 whole entry): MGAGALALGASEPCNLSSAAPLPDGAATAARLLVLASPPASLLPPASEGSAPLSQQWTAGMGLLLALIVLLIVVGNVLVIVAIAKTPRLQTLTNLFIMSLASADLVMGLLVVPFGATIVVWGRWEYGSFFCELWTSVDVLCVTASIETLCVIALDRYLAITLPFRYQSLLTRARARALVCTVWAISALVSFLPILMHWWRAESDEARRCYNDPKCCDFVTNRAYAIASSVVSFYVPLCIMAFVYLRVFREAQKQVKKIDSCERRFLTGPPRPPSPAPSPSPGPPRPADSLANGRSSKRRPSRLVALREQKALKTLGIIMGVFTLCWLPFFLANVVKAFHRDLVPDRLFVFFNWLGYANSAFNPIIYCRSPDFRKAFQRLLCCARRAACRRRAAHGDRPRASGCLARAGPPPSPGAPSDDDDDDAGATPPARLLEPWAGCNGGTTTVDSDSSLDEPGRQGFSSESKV

For `Cc1cc(C2=NNC(=O)CC2)ccc1OCCCNCC(O)COc1ccc(CCOCC2CC2)cc1` (stereo not drawn) [Substance O, 6-[4-[3-[3-(4-(2-cyclopropylmethoxy-ethyl)phenoxy)-2-hydroxy-propylamino]propoxy]-3-methyl-phenyl]-4,5-dihydro-3(2H)-pyridazinone], the IC50 in test [1] turned out to be 59 nM. Moreover, the IC50 in test [2] is 66 nM. Moreover, in test [3], the change in vivo at 3 mg/kg was 38% and the “Effect on heart rate in beats per minute” value is -116 beats per minute. In test [4], the pA2 heart rate is 7.70 and the pA2 inotropia was 6.44.
The molecule `Cc1cc(C2=NNC(=O)CC2)ccc1OCCCNCC(O)COc1ccc(CCOCC2CCC2)cc1` (stereo not drawn) [Substance P, 6-[4-[3-[3-(4-(2-cyclobutylmethoxy-ethyl)phenoxy)-2-hydroxy-propylamino]propoxy]-3-methyl-phenyl]-4,5-dihydro-3(2H)-pyridazinone] registered a half-maximal inhibitory concentration (IC50) in test [1] of 6 nM. In test [2], the IC50 was found to be 220 nM. In test [3], the change in vivo at 3 mg/kg amounted to 69% and the “Effect on heart rate in beats per minute” value is -61 beats per minute. In test [4], the pA2 heart rate turned out to be 6.45 and the pA2 inotropia was 5.31.
